# Measured values published in US20200306173A1, “LICORICE EXTRACT SYNERGY WITH MENTHOL FOR BREATH FRESHENING IN A CONFECTIONARY PRODUCT” (WM. WRIGLEY JR. COMPANY, priority 2017, published 2020).
# Tested on: salivary bacteria
# Test: Hydrogen sulfide production by salivary bacteria in pooled saliva mixed with L-cysteine, headspace GC with sulfur detector
# Assay type: cell-based, human
# Conditions: Example 2, FIG. 2; menthol alone at 4 mg/ml as compared to 2 mg/ml
# Method: • 1. About 10-20 ml of saliva was obtained from human subjects and mixed together prior to use. • 2. L-cysteine was dissolved in deionized (D.I.) water to produce 0.5% of cysteine solution. • 3. About 2.5 ml of pooled saliva was mixed with 2.5 ml of cysteine solution in a 20 ml headspace vial. • 4. The amount of hydrogen sulfide generated by salivary bacteria was analyzed by a gas chromatography (GC) equipped with a sulfur detector. Pooled saliva (50% dilution) and L-cysteine (0.25% in D.I. water) were used as the negative controls.
# • 1. For evaluation of the headspace concentration of volatile sulfur compounds (VSCs), a gas chromatograph (GC) equipped with a sulfur chemiluminescence detector (SCD) was used. • 2. Each run was completed within 10 minutes. • 3. The level of H2S was analyzed by the GC-SCD by direct injection of 0.25 ml of headspace volume with an automated sampler.
# Levels of H2S concentrations [μg/mL] were measured by gas […]. Licorice extract powder (Glycyrrhiza glabra) and menthol were each evaluated individually and then in combination. Saliva with cysteine served as a control reference. Licorice extract powder was sampled individually at 10 mg/ml and 20 mg/ml in a saliva-cysteine mixture. Menthol at 2 mg/ml was sampled individually. Three combinations of licorice and menthol were sampled, varying the amount of licorice extract.
smiles,measurement,value
CC1CCC(C(C)C)C(O)C1 (stereo not shown) [menthol],H2S production (peak gas chromatography area),slight decrease of H2S production in later time points
